One may read the CC50 as the concentration giving 50% cytotoxicity.

For one series, the system named is MA104. Description: Cytotoxicity, MTT assay, MA104. It is filed as cell-based, African green monkey. Here is the method: The cytotoxic effects of the chemicals and their solvents were tested by the MTT assay,[44] and its procedure is described in Supplementary Information.
The cytotoxic effects of the chemicals and their solvents used were tested by the MTT assay as described previously.^10 In brief, the chemicals were dissolved in DMSO to a stock concentration of 10 mM, and then freshly serially diluted in serum-free medium before being added to cell culture monolayers. The absorbance was measured using an enzyme-linked immunosorbent assay (ELISA) reader at an optical density (OD) of 570 nm. The percent cell viability was calculated using the following formula, [(ODsample˗ODblank)/(ODcontrol˗ODblank)] × 100%. According to the cell cytotoxicity data, dose-response curves were generated for the calculation of CC50 using GraphPad Prism software version 8.4.2.
A general note: Tetrazolium dyes change colour on reduction, which living cells bring about.

For another series, the system named is SARS-CoV-2 KCDC03 strain. It is filed as in vivo, Syrian hamsters.
The next series relates to seven target RNA viruses. Description: Broad-spectrum antiviral effect at 1-20 µM at different treatment times (RT-qPCR, CCIF). It is filed as cell-based. The conditions noted are these: all target RNA viruses, treated just prior to the peak of lipase activity vs immediately after virus absorption.
The test system of another series is lipid droplets (LDs). In words: BODIPY lipid droplet immunofluorescence in IAV-infected A549 cells. The note with it: MOI = 1 FFU. It is filed as cell-based, human. Here is the method:
To characterize the dynamics of LD formation, apoptotic and necroptotic cells, and virus infectivity, an IFA was performed with the […], MDCK, Caco-2, Vero E6, MA104, MARC-145, LLC-PK, and HRT-18G cells, infected with or without each virus, and treated with vehicles or chemicals at the different time points (Table S3), or transfected with siRNA or scrambled siRNA as described above.^ 16^,27^,28 Briefly, cells were prepared in 8-well chamber slides infected with IAV, SARS-CoV-2, BCoV, PEDV, RVA, PRRSV, or PSaV at an MOI of 1 (IAV), or MOI of 0.1 (SARS-CoV-2, BCoV, PEDV, RVA, PRRSV, or PSaV) and treated with or without chemicals. […] Subsequently, cells were washed thrice with PBS (pH 7.4) and mounted with SlowFade Gold antifade reagent containing 1 × DAPI solution (Molecular Probes) for nucleus staining, observed with a LSM 800 confocal microscope, and analysed using Zen Blue Software 2.6 (Carl Zeiss; Jena, Germany).
The number and size of intracellular LDs were measured as described previously.^28 Briefly, four images were taken of each sample and converted into a pixel unit, and the data were processed and quantified using Adobe Photoshop CS6. […] The results were expressed as relative values, where the average number and size of pixels of positive color in virus-infected groups were normalized to those of the mock-treated, mock-infected control.

Series [1] can be described thus: In vivo toxicity in mice (body weight, gross and histopathological organ changes). The note with it: for gross and histopathological changes in major organs (liver, lung, kidney, heart, spleen): 0.1, 1, or 10 mg kg^-1 d^-1 Bid for 4 consecutive days.
A short description of series [2]: In vivo toxicity in hamsters (body weight, gross and histopathological organ changes).
Method: Three groups of 3 hamsters were treated intraperitoneally with 20, 40, and 80 mg kg^-1 d^-1 of atglistatin prepared in a 100 μL vehicle [50% PEG400 in water (vol/vol)] Bid with a 12 h interval for four and a half consecutive days, respectively (Table S10). One group of 3 control anesthetized hamsters was administered intraperitoneally with 100 μL vehicle Bid with a 12 h interval for four and a half consecutive days (Table S10).
Histopathological changes in lungs, liver, kidney, heart, and spleen from the experimental mice or hamsters in each experimental group were determined as described elsewhere.^35 Briefly, each sample from the mice or hamsters in each experimental group was fixed in sufficient 10% neutral formalin at 20°C for 3-4 days, washed in tap water, then trimmed, and thereafter processed in the automatic embedding machine for the dehydration and paraffin embedment. Tissue sections, prepared on slides at a thickness of 3 μm by a microtome, were used for hematoxylin and eosin (H&E) staining or IHC as described below. H&E stained sections were observed under light microscopy. The morphological changes to lung, liver, kidney, heart, and spleen tissues were reviewed in a blinded manner as previous described.^35
The conditions of series [3]: mouse, in vivo, ip.

Like-named read-outs stand apart in the source and are kept apart here.

The compound `CN(C)C(=O)Nc1cccc(-c2ccc(N(C)C)cc2)c1` [Atglistatin] yielded a 50% cytotoxic concentration (CC50) in the series with MA104 of 214.5 ± 2 µM. In the series with SARS-CoV-2 KCDC03 strain ([…], different concentrations (20, 40, 80 mg kg^-1 d^-1)), the gross lung lesions entry was “improved gross lung lesions in a dose-dependent manner”. In addition, in the series on SARS-CoV-2 KCDC03 strain (hamster, in vivo), the “FFA and glycerol release from LDs in lungs” value was “inhibition of FFA and glycerol release”; the “IFN-α and IFN-β production” value is reported as “no effect”; the “levels of TNF-α, IL-6, and MCP-1” value is given as “reduced”; the “reduction in lung lesions” value was found to be 72%. In the series on seven target RNA viruses, the “viral genome replication and infectious progeny production” value is “greater reduction in viral genome replication and infectious progeny production of all target RNA viruses in a dose-dependent manner”. Further, the “intracellular LDs (BODIPY)” value in the series on lipid droplets (LDs) is “Retention of LDs”. Further, the “gross and histopathological changes in major organs (liver, lung, kidney, heart, spleen)” value (“gross and histopathological changes” below) in series [1] is “no gross and histopathological changes”. In addition, the “overt signs of toxicity, including loss of body weight” value in series [1] (intraperitoneal 10 mg kg^-1 d^-1) is “did not induce any overt signs of toxicity”. Further, the “toxicity, including body weight loss” value in series [2] (80 mg kg^-1 d^-1 atglistatin and 2.5 mg kg^-1 d^-1 remdesivir, singly or in combination) was “no toxicity”. For the same compound, the “gross and histopathological changes” value in series [2] (20, 40, or 80 mg kg^-1 d^-1 Bid for 4.5 consecutive days) is “no gross and histopathological changes”. Also, in series [2] (intraperitoneal 80 mg kg^-1 d^-1), the “overt signs of toxicity, including loss of body weight” value was “did not induce any overt signs of toxicity”.
For the compound `COc1nn(-c2ccc(NC(=O)OCc3ccccc3)c(C)c2)c(=O)o1` [CAY10499], the CC50 in the series on MA104 stood at 107 ± 5.6 µM. In the series on seven target RNA viruses, the “viral genome replication and infectious progeny production” value is “greater reduction in viral genome replication and infectious progeny production of all target RNA viruses in a dose-dependent manner”. Further, the “intracellular LDs (BODIPY)” value in the series on lipid droplets (LDs) is on record as “Retention of LDs”. Further, the “overt signs of toxicity, including loss of body weight” value in series [3] is listed as “did not induce any overt signs of toxicity”. Besides, the “gross and histopathological changes” value in series [1] is “no gross and histopathological changes”.
